In paper PMC5125615 (Biochemistry, 2015):
Substitutions are numbered along the chain they refer to.

How the values were obtained:
[1] = biological target: T1, RsTSPO (Cereibacter sphaeroides, UniProt Q9RFC8); experiment: binding to purified protein
T1 sequence (Q9RFC8 1-158): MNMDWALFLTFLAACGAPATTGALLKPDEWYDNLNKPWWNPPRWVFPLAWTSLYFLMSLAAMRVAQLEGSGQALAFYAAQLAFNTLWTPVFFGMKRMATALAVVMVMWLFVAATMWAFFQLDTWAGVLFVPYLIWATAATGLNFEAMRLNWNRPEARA

[2] = biological target: T2, RsTSPO (Cereibacter sphaeroides, UniProt Q9RFC8, A136L/A138F/T137A); experiment: binding to purified protein
T2 sequence (Q9RFC8 1-158 A136L/T137A/A138F): T1 sequence (Q9RFC8 1-158) with A136L, T137A, A138F

[3] = biological target: T1, RsTSPO; experiment: fluorescence quenching; assay type: binding; details: affinity value, symbol not given
[4] = biological target: T2, RsTSPO; experiment: fluorescence quenching; assay type: binding
[5] = biological target: T2, RsTSPO; experiment: binding to purified protein; remark: listed apart in the source
[6] = biological target: T1, RsTSPO; experiment: binding to purified protein; details: affinity value, symbol not given

CC(C)CCC[C@@H](C)[C@H]1CC[C@H]2[C@@H]3CC=C4C[C@@H](O)CC[C@]4(C)[C@H]3CC[C@]12C [cholesterol]
Kd [1]: ~80 µM
Kd [2]: ~0.02 µM

CCC(C)N(C)C(=O)c1cc2ccccc2c(-c2ccccc2Cl)n1 (stereo not drawn) [PK11195]
Kd [3]: 10 ± 1 µM
Kd [4]: 15 ± 4 µM

C=CC1=C(C)c2cc3[nH]c(cc4nc(cc5[nH]c(cc1n2)c(C)c5CCC(=O)O)C(CCC(=O)O)=C4C)c(C)c3C=C [protoporphyrin IX]
Kd [5]: 1.1 ± 0.1 µM
Kd [6]: 0.31 ± 0.01 µM
